Data: paper PMC12248599, “Exploring the Bioavailability of Red Grape Skin Extract Polyphenols: A Caco-2 Cell Model Study” (Foods, 2025)
“And” between values parts separate entries of the source, which are not always exact repeats. Equal values may be shown once. Marks after values point to notes of the source that are not given here. One block for each compound: values may come before it.

What was measured:
[1] = Caco-2 monolayer transport (bioavailability) study, AB and BA directions; assay type: in vitro ADME, Homo sapiens; settings: human; for efflux ratio at 180 min, 15 mg/mL / efflux ratio at 180 min, 22 mg/mL: Caco-2, Papp (BA)/Papp (AB), read-out: ER (efflux ratio); for efflux ratio at 180 min, 15 mg/mL / Papp A→B at 180 min, 15 mg/mL / Papp B→A at 180 min, 15 mg/mL: S1 (15 mg/mL GSE); for efflux ratio at 180 min, 22 mg/mL / Papp A→B at 180 min, 22 mg/mL / Papp B→A at 180 min, 22 mg/mL: S2 (22 mg/mL GSE); for efflux ratio at 180 min: Caco-2, text statement, S1 and S2; for Papp A→B at 180 min, 15 mg/mL / Papp A→B at 180 min, 22 mg/mL / Papp B→A at 180 min, 15 mg/mL / Papp B→A at 180 min, 22 mg/mL: Caco-2; for Papp A→B at 180 min, 15 mg/mL / Papp A→B at 180 min, 22 mg/mL: apical to basolateral; for Papp B→A at 180 min, 15 mg/mL / Papp B→A at 180 min, 22 mg/mL: basolateral to apical
Experimental: (§1) A reversed phase C18 column (Luna 5 μm C18(2) 100 Å, LC Column 250 × 4.6 mm, Phenomenex) was used to separate the polyphenols at a flow rate of 0.7 mL/min with an injection volume of 60 µL. The detection was carried out at 520 nm for anthocyanins (M3G, D3G and Pet3G), at 328 nm for CA, at 356 nm for flavonols (Q3G, K3Gal and K3G) and at 280 nm for GA and SA. The mobile phases were (A) acetonitrile 100% and (B) water 0.1% trifluoroacetic acid (v/v). The gradient was programmed as follows: 10% A 0 min, 10–80% A (0–20 min), 80–100% A (20–25 min), 100% A (25–30 min); 10% A (30–35 min) and 10% A (35–40 min). Every polyphenol was quantified using the corresponding reference standard calibration curve. Each of the quantified phenolic compound concentration was expressed as mg/mL
(§2) For the transport experiment Caco-2 cells were cultured at a density of 4 × 10^4 cells/cm^2 in Transwell inserts (12 mm i.d., 1.12 cm^2 growth area, 0.4 µm mean pore size polycarbonate membranes, Corning Inc., Milwaukee, WI, USA) placed in 12-well plates. Caco-2 cells were grown in DMEM in an incubator at 37 °C in a humidified atmosphere containing 5% CO2.
(§3) Bioavailability studies were performed in triplicate after 21 days of cell growth. Only inserts with stable TEER values higher than ≥300 Ω cm^2 were considered acceptable to perform the bioavailability study. For that purpose, DMEM media was removed, the monolayer was washed with PBS and HBSS was supplied to the cells.
(§4) Likewise, the GSE stock solution was diluted in HBSS medium to prepare GSE solutions S1 and S2. GSE solutions S1 and S2 had concentrations of 15 mg/mL and 22 mg/mL, respectively. These concentrations were established considering previous studies with grape pomace extracts that concluded that intestinal concentrations of 1–2% (w/v) show potential bioactivities and are safe to be used as a food ingredient.
(§5) The apical side represents the intestinal lumen and the basolateral side represents the bloodstream. Each sample (100 µL) was immediately acidified with 1M HCl to a final concentration of 0.007 M and subsequently frozen at −20 °C until analysis by HPLC (according to the method described in Section 2.5). Each experiment was carried out on 3 individual wells. The transport efficiency (TE) percentage was calculated according to Equation (2):Transport efficiency (%) = (C/C0) × 100(2) where, C is the polyphenol concentration at the acceptor side over time and C0 is the initial concentration at the donor side. TE values were calculated for the nine polyphenols identified in the grape skin extract.
(§6) The apparent permeability coefficient (Papp) of the polyphenols in GSE was calculated for apical to basolateral side (AB) and basolateral to apical side (BA) flux studies according to Equation (3):Papp (cm/s) = (dQ/dt) × (VR/AC0)(3) where, dQ/dt is the permeability rate which means the steady-state linear rate of change of concentration (mg/L) per second (s) at the acceptor side; A is the surface area of the cell monolayer (1.12 cm^2). C0 is the initial concentration at the donor side (mg/L) at t = 0 s and VR is the volume of the solution of the acceptor side (mL).
(§7) The efflux ratio (ER) of the polyphenol was assessed by calculating the Equation (4):ER = Papp (BA)/Papp (AB)(4) where, Papp (BA) is the apparent permeability coefficient of the polyphenol from basolateral to apical side and Papp (AB) is the apparent permeability coefficient from apical to basolateral side. ER is a measure of the relative contributions of active and passive transport to bi-direction flux across the cell monolayer.

[2] = test system: Caco-2 cell monolayer; experiment: as above; assay type: in vitro ADME, Homo sapiens; settings: for reduction in concentration on the apical (donor) side / reduction in concentration on the basolateral (donor) side: 0 to 180 min; for TE (%) transport efficiency: after 180 min
Experimental: as §1, §2, §3, §4, §5, §6, §7

[3] = AB experiment, S1 (15 mg/mL GSE)
[4] = AB experiment, S2 (22 mg/mL GSE)
[5] = AB experiment, acceptor side, S1 (15 mg/mL GSE)
[6] = AB experiment, acceptor side, S2 (22 mg/mL GSE)
[7] = AB experiment, donor side, S1 (15 mg/mL GSE)
[8] = AB experiment, donor side, S2 (22 mg/mL GSE)
[9] = AB experiments, basolateral side
[10] = BA experiment, S1 (15 mg/mL GSE)
[11] = BA experiment, S2 (22 mg/mL GSE)
[12] = BA experiment, acceptor side, S1 (15 mg/mL GSE)
[13] = BA experiment, acceptor side, S2 (22 mg/mL GSE)
[14] = BA experiment, donor side, S1 (15 mg/mL GSE)
[15] = BA experiment, donor side, S2 (22 mg/mL GSE)

efflux ratio at 180 min, 15 mg/mL [1]: 1.3
efflux ratio at 180 min, 22 mg/mL [1]: 1.4
efflux ratio at 180 min [1]: > 1
Papp A→B at 180 min, 15 mg/mL [1]: 740 ± 30 nm/s
Papp A→B at 180 min, 22 mg/mL [1]: 510 ± 20 nm/s
Papp B→A at 180 min, 15 mg/mL [1]: 930 ± 70 nm/s
Papp B→A at 180 min, 22 mg/mL [1]: 730 ± 80 nm/s
reduction in concentration on the apical (donor) side [2, 3]: 59 ± 4%
TE (%) transport efficiency [2, 3]: 7 ± 1%
reduction in concentration on the apical (donor) side [2, 4]: 44.1 ± 0.7%
TE (%) transport efficiency [2, 4]: 4.4 ± 0.5% and 4.4 ± 0.4%
Basolateral Side 75 min [2, 5]: 0.06 ± 0.01 ^b mg/L
Basolateral Side 90 min [2, 5]: 0.06 ± 0.01 ^b,c mg/L
Basolateral Side 115 min [2, 5]: 0.06 ± 0.01 ^b,c mg/L
Basolateral Side 180 min [2, 5]: 0.07 ± 0.01 ^c mg/L
Basolateral Side 75 min [2, 6]: 0.07 ± 0.01 ^b mg/L
Basolateral Side 90 min [2, 6]: 0.07 ± 0.01 ^b,c mg/L
Basolateral Side 115 min [2, 6]: 0.08 ± 0.01 ^b mg/L
Basolateral Side 180 min [2, 6]: 0.08 ± 0.01 ^b mg/L
Apical Side 0 min [2, 7]: 1.04 ± 0.08 mg/L and 1.04 ± 0.08 ^a mg/L
Apical Side 75 min [2, 7]: 0.84 ± 0.07 ^b mg/L
Apical Side 90 min [2, 7]: 0.67 ± 0.07 ^c mg/L
Apical Side 115 min [2, 7]: 0.54 ± 0.07 ^d mg/L
Apical Side 180 min [2, 7]: 0.43 ± 0.07 mg/L and 0.43 ± 0.07 ^d mg/L
Apical Side 0 min [2, 8]: 1.82 ± 0.03 mg/L and 1.82 ± 0.03 ^a mg/L
Apical Side 75 min [2, 8]: 1.54 ± 0.03 ^b mg/L
Apical Side 90 min [2, 8]: 1.37 ± 0.02 ^c mg/L
Apical Side 115 min [2, 8]: 1.16 ± 0.02 ^d mg/L
Apical Side 180 min [2, 8]: 1.01 ± 0.01 mg/L and 1.01 ± 0.01 ^c mg/L
detection at the acceptor side [2, 9]: detected
reduction in concentration on the basolateral (donor) side [2, 10]: 43.5 ± 0.4%
TE (%) transport efficiency [2, 10]: 11.2 ± 0.8%
reduction in concentration on the basolateral (donor) side [2, 11]: 22.6 ± 0.8%
TE (%) transport efficiency [2, 11]: 8.7 ± 0.9%
Apical Side 75 min [2, 12]: 0.08 ± 0.01 ^b mg/L
Apical Side 90 min [2, 12]: 0.09 ± 0.01 ^c mg/L
Apical Side 115 min [2, 12]: 0.10 ± 0.01 ^d mg/L
Apical Side 180 min [2, 12]: 0.12 ± 0.01 ^c mg/L
Apical Side 75 min [2, 13]: 0.08 ± 0.01 ^a,b mg/L
Apical Side 90 min [2, 13]: 0.10 ± 0.01 ^a,b,c mg/L
Apical Side 115 min [2, 13]: 0.11 ± 0.01 ^b,c mg/L
Apical Side 180 min [2, 13]: 0.12 ± 0.01 ^c mg/L
Basolateral Side 0 min [2, 14]: 1.04 ± 0.03 ^a mg/L
Basolateral Side 75 min [2, 14]: 0.91 ± 0.02 ^b mg/L
Basolateral Side 90 min [2, 14]: 0.80 ± 0.02 ^c mg/L
Basolateral Side 115 min [2, 14]: 0.70 ± 0.02 ^c,d mg/L
Basolateral Side 180 min [2, 14]: 0.59 ± 0.02 ^c mg/L
Basolateral Side 0 min [2, 15]: 1.4 ± 0.1 ^a mg/L
Basolateral Side 75 min [2, 15]: 1.3 ± 0.1 ^b mg/L
Basolateral Side 90 min [2, 15]: 1.23 ± 0.09 ^c mg/L
Basolateral Side 115 min [2, 15]: 1.15 ± 0.08 ^d mg/L
Basolateral Side 180 min [2, 15]: 1.08 ± 0.08 ^c mg/L
SMILES: O=C(/C=C/c1ccc(O)c(O)c1)O[C@@H](C(=O)O)[C@@H](O)C(=O)O [CA, caftaric acid]

SMILES: O=C(O)c1cc(O)c(O)c(O)c1 [GA, gallic acid]
efflux ratio at 180 min, 15 mg/mL [1]: 0.7
efflux ratio at 180 min, 22 mg/mL [1]: 0.7
efflux ratio at 180 min [1]: < 1
Papp A→B at 180 min, 15 mg/mL [1]: 16900 ± 700 nm/s
Papp A→B at 180 min, 22 mg/mL [1]: 18000 ± 2000 nm/s
Papp B→A at 180 min, 15 mg/mL [1]: 11500 ± 600 nm/s
Papp B→A at 180 min, 22 mg/mL [1]: 12900 ± 50 nm/s
TE (%) transport efficiency [2, 3]: 156 ± 26%
TE (%) transport efficiency [2, 4]: 164 ± 23%
Basolateral Side 75 min [2, 5]: 8.1 ± 0.9 ^b mg/L
Basolateral Side 90 min [2, 5]: 8.6 ± 0.9 ^b mg/L
Basolateral Side 115 min [2, 5]: 9.1 ± 0.9 ^b mg/L
Basolateral Side 180 min [2, 5]: 9.4 ± 0.9 ^b mg/L
Basolateral Side 75 min [2, 6]: 8.1 ± 0.9 ^b mg/L
Basolateral Side 90 min [2, 6]: 8.6 ± 0.9 ^b mg/L
Basolateral Side 115 min [2, 6]: 9.1 ± 0.9 ^b mg/L
Basolateral Side 180 min [2, 6]: 9.6 ± 0.9 ^b mg/L
Apical Side 0 min [2, 7]: 6.1 ± 0.5 ^a mg/L
Apical Side 75 min [2, 7]: 5.0 ± 0.5 ^b mg/L
Apical Side 90 min [2, 7]: 4.1 ± 0.4 ^c mg/L
Apical Side 115 min [2, 7]: 3.4 ± 0.4 ^c,d mg/L
Apical Side 180 min [2, 7]: 2.9 ± 0.3 ^d mg/L
Apical Side 0 min [2, 8]: 5.9 ± 0.3 ^a mg/L
Apical Side 75 min [2, 8]: 5.0 ± 0.3 ^b mg/L
Apical Side 90 min [2, 8]: 4.4 ± 0.3 ^c mg/L
Apical Side 115 min [2, 8]: 3.7 ± 0.3 ^d mg/L
Apical Side 180 min [2, 8]: 3.2 ± 0.3 ^d mg/L
detection at the acceptor side [2, 9]: detected
TE (%) transport efficiency [2, 10]: 165 ± 6% and 164 ± 6%
TE (%) transport efficiency [2, 11]: 188 ± 4% and 188 ± 3%
Apical Side 75 min [2, 12]: 8.1 ± 0.3 ^a,b mg/L
Apical Side 90 min [2, 12]: 9.4 ± 0.2 ^b,c mg/L
Apical Side 115 min [2, 12]: 10.5 ± 0.3 ^c,d mg/L
Apical Side 180 min [2, 12]: 11.3 ± 0.3 ^d mg/L
Apical Side 75 min [2, 13]: 8.3 ± 0.5 ^a,b mg/L
Apical Side 90 min [2, 13]: 9.6 ± 0.5 ^b,c mg/L
Apical Side 115 min [2, 13]: 10.7 ± 0.6 ^c mg/L
Apical Side 180 min [2, 13]: 11.5 ± 0.7 ^c mg/L
Basolateral Side 0 min [2, 14]: 6.9 ± 0.3 ^a mg/L
Basolateral Side 75 min [2, 14]: 6.5 ± 0.3 ^b mg/L
Basolateral Side 90 min [2, 14]: 6.2 ± 0.3 ^c mg/L
Basolateral Side 115 min [2, 14]: 5.9 ± 0.3 ^d mg/L
Basolateral Side 180 min [2, 14]: 5.5 ± 0.2 ^c mg/L
Basolateral Side 0 min [2, 15]: 6.1 ± 0.4 ^a mg/L
Basolateral Side 75 min [2, 15]: 5.7 ± 0.4 ^b mg/L
Basolateral Side 90 min [2, 15]: 5.4 ± 0.4 ^c mg/L
Basolateral Side 115 min [2, 15]: 5.0 ± 0.4 ^d mg/L
Basolateral Side 180 min [2, 15]: 4.7 ± 0.3 ^d mg/L
detection at the acceptor side ([2]; BA experiments, apical side): detected
